{"source": "ChEMBL document CHEMBL1140197", "about": "“Synthesis, characterization and antibacterial activity of cobalt(III) complexes with pyridine-amide ligands” (Eur J Med Chem, 2008)", "key": {"Raoultella planticola": {"tested_on": "Raoultella planticola", "test": "Antibacterial activity against Klebsiella planticola MTCC 2272 after 16 hrs by microbroth dilution method", "assay_type": "functional, organism-based"}, "Pseudomonas aeruginosa [1]": {"tested_on": "Pseudomonas aeruginosa", "test": "Antibacterial activity against Pseudomonas aeruginosa MTCC 1688 after 16 hrs by microbroth dilution method", "assay_type": "functional, organism-based"}, "Shigella flexneri": {"tested_on": "Shigella flexneri", "test": "Antibacterial activity against Shigella flexneri MTCC 1457 after 16 hrs by microbroth dilution method", "assay_type": "functional, organism-based"}, "Pseudomonas aeruginosa [2]": {"tested_on": "Pseudomonas aeruginosa", "test": "Antibacterial activity against clinical isolate resistant Pseudomonas aeruginosa after 16 hrs by microbroth dilution method", "assay_type": "functional, organism-based"}, "Proteus vulgaris": {"tested_on": "Proteus vulgaris", "test": "Antibacterial activity against clinical isolate resistant Proteus vulgaris after 16 hrs by microbroth dilution method", "assay_type": "functional, organism-based"}, "Escherichia coli": {"tested_on": "Escherichia coli", "test": "Antibacterial activity against clinical isolate resistant Escherichia coli after 16 hrs by microbroth dilution method", "assay_type": "functional, organism-based"}, "[3]": {"test": "Cytotoxicity against HEK cells assessed as cell viability at 0.73 to 1500 ug/mL after 48 hrs by MTT assay", "assay_type": "cell-based", "conditions": "human, hek293, 48 h; call rule not given here"}}}
{"sequence": "GENTAMICIN [listing 1 of 2 here]", "values": [{"measurement": "MIC", "setting": "Raoultella planticola", "result": 1.46, "unit": "µg/mL"}, {"measurement": "MIC", "setting": "Pseudomonas aeruginosa [1]", "result": 1.46, "unit": "µg/mL"}, {"measurement": "MIC", "setting": "Shigella flexneri", "result": 1.46, "unit": "µg/mL"}, {"measurement": "MIC", "setting": "Pseudomonas aeruginosa [2]", "result": 5.5, "unit": "µg/mL"}, {"measurement": "MIC", "setting": "Proteus vulgaris", "result": 187, "unit": "µg/mL"}, {"measurement": "MIC", "setting": "Escherichia coli", "result": 11, "unit": "µg/mL"}]}
{"sequence": "GENTAMICIN [listing 2 of 2 here]", "values": [{"measurement": "Activity", "setting": "[3]", "result": "Active"}]}
